We go through 11 compounds from patent US20120010135A1, “SPIRO DERIVATIVES FOR THE MODULATION OF STEAROYL-COA DESATURASE” (XENON PHARMACEUTICALS INC., priority 2009, published 2012).

Data set [1] concerns the target T1, stearoyl-CoA desaturase (SCD1) (Mus musculus, UniProt P13516).
T1 construct: Male ICR outbread mice, on a high-carbohydrate, low fat diet; from tissue; host or cells: liver microsomes of male ICR mice on a high-carbohydrate, low fat diet
T1 sequence (P13516 1-355): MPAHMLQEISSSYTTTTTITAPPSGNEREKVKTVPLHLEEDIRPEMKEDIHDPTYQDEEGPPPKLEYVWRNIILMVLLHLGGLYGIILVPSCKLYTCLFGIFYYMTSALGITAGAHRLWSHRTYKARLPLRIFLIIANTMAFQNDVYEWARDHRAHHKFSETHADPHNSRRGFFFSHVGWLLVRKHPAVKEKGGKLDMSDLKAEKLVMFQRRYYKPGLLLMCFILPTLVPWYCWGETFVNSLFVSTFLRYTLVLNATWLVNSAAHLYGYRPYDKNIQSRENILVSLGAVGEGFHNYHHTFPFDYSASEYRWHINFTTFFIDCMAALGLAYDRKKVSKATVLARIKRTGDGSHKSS
Put plainly: SCD microsomal assay using mouse liver microsomes (release of 3H2O from [9,10-3H]stearoyl-CoA). The data set is classed as biochemical. To be noted: 15 min incubation, 25° C. The source says:
The identification of compounds of the invention as SCD inhibitors was readily accomplished using the SCD enzyme and microsomal assay procedure described in Shanklin J. and Summerville C., Proc. Natl. Acad. Sci. USA (1991), Vol. 88, pp. 2510-2514.
Measuring Stearoyl-CoA Desaturase Inhibition Activity of a Test Compound Using Mouse Liver Microsomes
The identification of compounds of the invention as SCD inhibitors was readily accomplished using the SCD microsomal assay procedure described in Shanklin J. and Summerville C., Proc. Natl. Acad. Sci. USA (1991), Vol. 88, pp. 2510-2514.
Male ICR outbread mice, on a high-carbohydrate, low fat diet, under light halothane (15% in mineral oil) anesthesia are sacrificed by exsanguination during periods of high enzyme activity. Livers are immediately rinsed with cold 0.9% NaCl solution, weighed and minced with scissors. All procedures are performed at 4′C unless specified otherwise. Livers are homogenized in a solution (1/3 w/v) containing 025 M sucrose, 62 mM potassium phosphate buffer (pH 7.0), 0.15 M KCL 15 mM N-acetyleysteine, 5 mM MgCl2, and 0.1 mM EDTA using 4 strokes of a Potter-Elvehjem tissue homogenizer. The homogenate is centrifuged at 10,400×g for 20 min to eliminate mitochondria and cellular debris. The supernatant is filtered through a 3-layer cheesecloth and centrifuged at 105,000×g for 60 min. The microsomal pellet is gently resuspended in the same homogenization solution with a small glass/teflon homogenizer and stored at −70° C. The absence of mitochondrial contamination is enzymatically assessed. The protein concentration is measured using bovine serum albumin as the standard.
Desaturase activity is measured as the release of ^3H2O from [9,10-^3H]stearoyl-CoA. Reactions per assay point conditions are as follows: 2 μL 1.5 mM stearoyl-CoA, 0.25 μL 1 mCi/mL ^3H-stearoyl CoA, 10 μL 20 mM NADH, 36.75 μL 0.1 M PK buffer (K2HPO4/NaH2PO4, pH 7.2). The test compound or control solution is added in a 1 μL volume. Reactions are started by adding 50 μL of microsomes (1.25 mg/mL). The plates are mixed and after 15 min incubation on a heating block (25° C.), the reactions are stopped by the addition of 10 μL 60% PCA. An aliquot of 100 μL is then transferred to a fitter plate pretreated with charcoal and the plate centrifuged at 4000 rpm for 1 minute. The flow through containing the ^3H2O released by the SCD1 desaturation reaction is added to scintillation fluid and the radioactivity measured in a Packard TopCount. The data is analysed to identify the IC50 for test compounds and reference compounds.
The activity was defined in terms of % SCD enzyme activity remaining at the desired concentration of the test compound or as the IC50 concentration. The IC50 (affinity) of the example compounds toward the stearoyl-CoA desaturase is comprised between around […] and 0.0001 μM or between around […] 0.0001 μM or between around 1 μM and 0.0001 μM.
Background: Microsomes from liver hold many membrane-bound enzymes, among them those of drug oxidation.

pIC50: −log10 of the molar value. Structures can show the parent of a compound that is named as a salt.

In turn, `CNC(=O)c1ccnc(NC(=O)N2CCC3(CC2)CC(=O)c2ccc(F)cc2O3)c1` [Example 1, 7-fluoro-N-(4-(methylcarbamoyl)pyridin-2-yl)-4-oxospiro[chroman-2,4′-piperidine]-1′-carboxamide hydrochloride] gave a pIC50 in data set [1] of 6.28.
`CNC(=O)c1ccnc(NC(=O)N2CCC3(CCc4ccc(F)cc4O3)CC2)c1` [Example 1.1, 7-fluoro-N-(4-(methylcarbamoyl)pyridin-2-yl)spiro[chroman-2,4′-piperidine]-1′-carboxamide] yielded a melting point of 177 to 179 °C. Moreover, in data set [1], the pIC50 is 7.77.
On to `CNC(=O)c1ccnc(NC(=O)N2CCC3(CCc4cccc(Cl)c4O3)CC2)c1` [Example 1.2, 8-chloro-N-(4-(methylcarbamoyl)pyridin-2-yl)spiro[chroman-2,4′-piperidine]-1′-carboxamide hydrochloride], for which, in data set [1], the pIC50 is 8.52.
Consider `CNC(=O)c1ccnc(NC(=O)N2CCC3(CC2)CC(=O)c2cccc(Cl)c2O3)c1.Cl` [Example 1.3, 8-chloro-N-(4-(methylcarbamoyl)pyridin-2-yl)-4-oxospiro[chroman-2,4′-piperidine]-1′-carboxamide hydrochloride], for which the melting point was 215 °C (dec.). The compound further showed a pIC50 in data set [1] of 7.25.
`CNC(=O)c1ccnc(NC(=O)N2CCC3(CCc4cc(F)ccc4O3)CC2)c1` [Example 1.4, 6-fluoro-N-(4-(methylcarbamoyl)pyridin-2-yl)spiro[chroman-2,4′-piperidine]-1′-carboxamide] yielded a melting point of 175 to 176 °C.
Regarding `CNC(=O)c1cccc(NC(=O)N2CCC3(CCc4ccc(F)cc4O3)CC2)n1` [Example 1.5, 7-fluoro-N-(6-(methylcarbamoyl)pyridin-2-yl)spiro[chroman-2,4′-piperidine]-it-carboxamide], the melting point lay in the range of 126 to 128 °C.
Regarding `CNC(=O)c1cncc(NC(=O)N2CCC3(CCc4ccc(F)cc4O3)CC2)c1` [Example 1.6, 7-fluoro-N-(5-(methylcarbamoyl)pyridin-3-yl)spiro[chroman-2,4′-piperidine]-1′-carboxamide], the melting point was 231 to 233 °C.
`CNC(=O)c1ccnc(NC(=O)N2CCC3(CC2)Cc2ccccc2C3)c1` [Example 1.7, N-(4-(methylcarbamoyl)pyridin-2-yl)-1,3-dihydrospiro[indene-2,4′-piperidine]-1′-carboxamide] showed a melting point of 229 to 231 °C.
On to `Cn1cc(CNC(=O)c2ccnc(NC(=O)N3CCC4(CCc5cc(F)ccc5O4)CC3)c2)cn1` [Example 2.1, 6-fluoro-N-(4-{[(1-methyl-1H-pyrazol-4-yl)methyl]carbamoyl}pyridin-2-yl)-3,4-dihydro-1′H-spiro[chromene-2,4′-piperidine]-1′-carboxamide hydrochloride], for which, in data set [1], the pIC50 was 7.40.
The compound `NC(=O)c1ccnc(NC(=O)N2CCC3(CCc4cc(F)ccc4O3)CC2)c1` [Example 3, N-(4-carbamoylpyridin-2-yl)-6-fluorospiro[chroman-2,4′-piperidine]-1′-carboxamide] came in with a melting point of 265 to 267 °C.
`Cc1nc(NC(=O)N2CCC3(CCc4ccc(F)cc4O3)CC2)sc1C(=O)NCc1ccccn1` [Example 4, 7-fluoro-N-(4-methyl-5-(pyridin-2-ylmethylcarbamoyl)thiazol-2-yl)spiro[chroman-2,4′-piperidine]-1′-carboxamide] displayed a melting point of 165 to 167 °C. Moreover, the negative logarithm of the IC50 (pIC50) in data set [1] was 7.32.

Broadly, the pIC50 is −log10 of the IC50, conventionally taken in molar units. Low readings indicate a large IC50, high ones a small IC50. By melting point is commonly meant the temperature, or range, at which the solid turns liquid.
